Measured values taken from the NIST ThermoML archive (doi:10.1021/je049743g).
Values joined by “and” are separate entries in the source; they are usually repeats but may differ in a detail not shown here. Equal values may be shown once. ± gives the expanded uncertainty stated by the source.

Assay: wn = mass fraction of the nth substance listed
Details: Capillary rise

FC(C(F)(F)F)C(F)(F)F [1,1,1,2,3,3,3-heptafluoropropane] + FCF
Details | surface tension liquid-gas
275.5 K, w2 = 0.7242 | 9.87 ± 0.3 mN/m and 9.89 ± 0.3 mN/m
276.85 K, w2 = 0.2931 | 9.01 ± 0.3 mN/m and 9.05 ± 0.3 mN/m
277.27 K, w2 = 0.3913 | 9.02 ± 0.3 mN/m and 9.06 ± 0.3 mN/m
277.3 K, w2 = 0.7237 | 9.66 ± 0.3 mN/m and 9.65 ± 0.3 mN/m
277.39 K, w2 = 0.3466 | 8.95 ± 0.3 mN/m and 8.98 ± 0.3 mN/m
277.43 K, w2 = 0.5367 | 9.29 ± 0.3 mN/m
279.39 K, w2 = 0.7231 | 9.32 ± 0.31 mN/m and 9.34 ± 0.31 mN/m
279.42 K, w2 = 0.2921 | 8.71 ± 0.3 mN/m
279.43 K, w2 = 0.5359 | 8.92 ± 0.31 mN/m
279.46 K, w2 = 0.3457 | 8.67 ± 0.3 mN/m
279.6 K, w2 = 0.3904 | 8.74 ± 0.3 mN/m and 8.76 ± 0.3 mN/m
281.21 K, w2 = 0.3898 | 8.45 ± 0.3 mN/m and 8.46 ± 0.3 mN/m
281.3 K, w2 = 0.5351 | 8.65 ± 0.3 mN/m and 8.64 ± 0.3 mN/m
281.45 K, w2 = 0.3448 | 8.4 ± 0.3 mN/m and 8.41 ± 0.3 mN/m
281.51 K, w2 = 0.2913 | 8.39 ± 0.3 mN/m
281.54 K, w2 = 0.7224 | 8.9 ± 0.31 mN/m and 8.93 ± 0.31 mN/m
283.11 K, w2 = 0.2907 | 8.2 ± 0.3 mN/m
283.17 K, w2 = 0.389 | 8.23 ± 0.3 mN/m
283.29 K, w2 = 0.7219 | 8.59 ± 0.3 mN/m and 8.61 ± 0.3 mN/m
283.3 K, w2 = 0.5342 | 8.39 ± 0.31 mN/m and 8.4 ± 0.31 mN/m
283.49 K, w2 = 0.3439 | 8.13 ± 0.3 mN/m
284.67 K, w2 = 0.5336 | 8.04 ± 0.3 mN/m and 8.07 ± 0.3 mN/m
285.18 K, w2 = 0.7212 | 8.37 ± 0.3 mN/m
285.19 K, w2 = 0.3882 | 7.93 ± 0.3 mN/m and 7.99 ± 0.3 mN/m
285.24 K, w2 = 0.2898 | 7.93 ± 0.3 mN/m and 7.9 ± 0.3 mN/m
285.46 K, w2 = 0.343 | 7.94 ± 0.3 mN/m and 7.95 ± 0.3 mN/m
286.62 K, w2 = 0.3876 | 7.79 ± 0.3 mN/m
286.86 K, w2 = 0.2891 | 7.75 ± 0.3 mN/m and 7.71 ± 0.3 mN/m
287.47 K, w2 = 0.342 | 7.57 ± 0.3 mN/m
287.63 K, w2 = 0.5322 | 7.69 ± 0.3 mN/m and 7.73 ± 0.3 mN/m
289.31 K, w2 = 0.5314 | 7.44 ± 0.3 mN/m and 7.45 ± 0.3 mN/m
289.33 K, w2 = 0.7197 | 7.78 ± 0.31 mN/m
289.37 K, w2 = 0.288 | 7.41 ± 0.31 mN/m
289.37 K, w2 = 0.3411 | 7.34 ± 0.3 mN/m and 7.38 ± 0.3 mN/m
289.42 K, w2 = 0.3863 | 7.45 ± 0.3 mN/m
289.68 K, w2 = 0.2879 | 7.29 ± 0.31 mN/m
289.89 K, w2 = 0.7195 | 7.55 ± 0.3 mN/m and 7.53 ± 0.3 mN/m
290.16 K, w2 = 0.386 | 7.2 ± 0.31 mN/m
291.25 K, w2 = 0.2872 | 7.12 ± 0.31 mN/m
291.47 K, w2 = 0.34 | 7.14 ± 0.3 mN/m
291.47 K, w2 = 0.5304 | 7.13 ± 0.31 mN/m and 7.18 ± 0.3 mN/m
291.5 K, w2 = 0.3854 | 7.05 ± 0.31 mN/m and 7.03 ± 0.3 mN/m
291.53 K, w2 = 0.2871 | 7.07 ± 0.31 mN/m and 7.05 ± 0.31 mN/m
291.66 K, w2 = 0.3853 | 7.07 ± 0.31 mN/m and 7.11 ± 0.3 mN/m
291.67 K, w2 = 0.5303 | 7.18 ± 0.31 mN/m and 7.16 ± 0.31 mN/m
291.93 K, w2 = 0.7187 | 7.33 ± 0.3 mN/m and 7.35 ± 0.3 mN/m
293.1 K, w2 = 0.2864 | 6.87 ± 0.3 mN/m
293.2 K, w2 = 0.3391 | 6.83 ± 0.3 mN/m and 6.87 ± 0.3 mN/m
293.46 K, w2 = 0.2862 | 6.81 ± 0.3 mN/m and 6.79 ± 0.31 mN/m
293.53 K, w2 = 0.5293 | 6.9 ± 0.3 mN/m
293.53 K, w2 = 0.7181 | 7.06 ± 0.3 mN/m and 7.09 ± 0.3 mN/m
293.8 K, w2 = 0.3843 | 6.67 ± 0.3 mN/m and 6.69 ± 0.3 mN/m
